Measured values from article PMC7191050 (Molecules and Cells, 2020).

Experiments:
Assay type in all cases: binding
[1] = molecular target: T1, Ca IleRS (isoleucyl-tRNA synthetase) (Candida albicans, UniProt Q59RI1); experiment: X-ray crystal structure at […] Å
T1 sequence (Q59RI1 1-856): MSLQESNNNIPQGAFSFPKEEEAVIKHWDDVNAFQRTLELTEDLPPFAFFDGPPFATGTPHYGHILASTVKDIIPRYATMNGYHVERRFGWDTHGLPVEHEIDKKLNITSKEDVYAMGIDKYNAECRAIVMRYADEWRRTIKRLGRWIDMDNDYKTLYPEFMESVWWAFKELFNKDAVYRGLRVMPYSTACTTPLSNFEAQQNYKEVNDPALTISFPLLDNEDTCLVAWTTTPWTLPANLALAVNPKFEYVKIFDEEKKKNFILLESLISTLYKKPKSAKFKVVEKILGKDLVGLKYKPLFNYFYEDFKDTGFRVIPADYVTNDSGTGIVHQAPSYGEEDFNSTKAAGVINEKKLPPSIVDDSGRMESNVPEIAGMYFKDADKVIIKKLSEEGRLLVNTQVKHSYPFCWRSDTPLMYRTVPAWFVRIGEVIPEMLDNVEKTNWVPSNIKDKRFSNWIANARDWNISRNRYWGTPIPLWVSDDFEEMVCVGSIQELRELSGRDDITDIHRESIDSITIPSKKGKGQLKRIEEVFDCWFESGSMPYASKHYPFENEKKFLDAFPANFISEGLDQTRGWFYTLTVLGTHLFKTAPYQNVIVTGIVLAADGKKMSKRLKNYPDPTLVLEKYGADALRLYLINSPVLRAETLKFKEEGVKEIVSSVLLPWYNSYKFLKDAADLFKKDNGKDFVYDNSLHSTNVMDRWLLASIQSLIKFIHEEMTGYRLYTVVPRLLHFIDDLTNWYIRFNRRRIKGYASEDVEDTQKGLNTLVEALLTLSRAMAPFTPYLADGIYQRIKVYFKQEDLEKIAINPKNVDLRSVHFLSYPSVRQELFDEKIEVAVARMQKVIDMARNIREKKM

[2] = molecular target: T2, Ca IleRS mutant (isoleucyl-tRNA synthetase) (Candida albicans, UniProt Q59RI1, I601F/T599H); experiment: microscale thermophoresis
T2 sequence (Q59RI1 1-1088 T599H/I601F): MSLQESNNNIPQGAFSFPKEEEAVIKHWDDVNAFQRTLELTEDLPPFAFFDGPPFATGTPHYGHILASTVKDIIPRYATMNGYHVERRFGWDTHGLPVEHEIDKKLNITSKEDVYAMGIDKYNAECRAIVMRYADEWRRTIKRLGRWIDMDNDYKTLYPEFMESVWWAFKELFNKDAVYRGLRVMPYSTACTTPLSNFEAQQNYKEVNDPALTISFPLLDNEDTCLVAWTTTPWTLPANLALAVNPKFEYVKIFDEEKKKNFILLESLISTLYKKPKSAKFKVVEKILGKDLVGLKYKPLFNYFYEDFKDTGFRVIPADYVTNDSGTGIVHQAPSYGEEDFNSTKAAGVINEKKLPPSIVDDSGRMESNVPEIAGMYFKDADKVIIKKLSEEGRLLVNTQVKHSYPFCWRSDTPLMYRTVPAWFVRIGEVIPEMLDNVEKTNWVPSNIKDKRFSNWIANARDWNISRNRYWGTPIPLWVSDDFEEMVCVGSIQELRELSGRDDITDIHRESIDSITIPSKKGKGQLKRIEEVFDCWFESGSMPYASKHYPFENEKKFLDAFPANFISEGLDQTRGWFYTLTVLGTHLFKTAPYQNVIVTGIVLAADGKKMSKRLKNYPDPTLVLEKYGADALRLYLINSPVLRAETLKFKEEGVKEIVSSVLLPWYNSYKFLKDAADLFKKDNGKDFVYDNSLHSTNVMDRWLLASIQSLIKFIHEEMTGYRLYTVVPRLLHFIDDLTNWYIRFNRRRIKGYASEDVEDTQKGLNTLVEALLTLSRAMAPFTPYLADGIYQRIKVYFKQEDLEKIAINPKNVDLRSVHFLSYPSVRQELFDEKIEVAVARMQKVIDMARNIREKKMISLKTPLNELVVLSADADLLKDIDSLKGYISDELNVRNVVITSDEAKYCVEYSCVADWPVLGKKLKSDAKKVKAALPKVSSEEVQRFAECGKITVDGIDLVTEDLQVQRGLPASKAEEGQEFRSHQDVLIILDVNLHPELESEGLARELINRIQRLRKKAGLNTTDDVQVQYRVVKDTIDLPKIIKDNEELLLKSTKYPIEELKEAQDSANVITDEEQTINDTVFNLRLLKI

[3] = molecular target: T3, Ca IleRS (isoleucyl-tRNA synthetase) (Candida albicans, UniProt Q59RI1); experiment: microscale thermophoresis
T3 sequence (Q59RI1 1-1088): T2 sequence (Q59RI1 1-1088 T599H/I601F)

SMILES | X-ray crystal structure at 2.9 Å (ligand co-purified, none added) [1] | Kd [2] [µM] | Kd [3] [µM]
CC[C@H](C)[C@H](N)C(=O)OP(=O)(O)OC[C@H]1O[C@@H](n2cnc3c(N)ncnc32)[C@H](O)[C@@H]1O [Ile-AMP] | The crystal structure of Ca IleRS revealed clear electron density for Ile-AMP at the synthetic active site | – | –
C/C(=C\C(=O)OCCCCCCCCC(=O)O)C[C@@H]1OC[C@H](C[C@@H]2O[C@H]2[C@@H](C)[C@H](C)O)[C@@H](O)[C@H]1O [mupirocin] | – | 103 to 111 | 103 to 111
